One series deals with PCresistant S. aureus. In words: In vitro MIC, two-fold serial agar dilution in Mueller-Hinton agar, GpIb strains. The series is classed as cell-based. The settings on record: Staphylococcus aureus, 5 strains, read-out: Geometric mean of MIC, GpIb. As to the method: (§1) The in vitro antibacterial activity of the parent cephalosporanic acids of Formula I wherein R^4 is hydrogen is shown in Table 1 in terms of geometric mean of the Minimum Inhibitory Concentrations (MIC's) which were determined by the two-fold serial agar dilution method in Mueller-Hinton agar against 25 strains of test organisms in five groups.
GpIb: PCresistant S. aureus
On the technique in general: In agar dilution the substance is mixed into plates at graded concentrations.

The subject of series [1] is M. morcanii (1), E. cloacae (2) and S. marcescens (2). In words: In vitro MIC, two-fold serial agar dilution in Mueller-Hinton agar, GnII strains. It is filed as cell-based. Conditions: Enterobacter cloacae, read-out: Geometric mean of MIC, GnII. As for the experimental part:
as §1
GnII: M. morcanii (1), E. cloacae (2) and S. marcescens (2)

Series [2] relates to Penicillin(PC)sensitive S. aureus. The series can be described thus: In vitro MIC, two-fold serial agar dilution in Mueller-Hinton agar, Gp-Ia strains. It is filed as cell-based. Conditions: Staphylococcus aureus; GpIa, 5 strains; read-out: Geometric mean of MIC, GpIa. As to the method: as §1
Gp-Ia: Penicillin(PC)sensitive S. aureus

For series [3], the system named is Cephalothin(CET)sensitive E. coli (2 strains), K. pneumoniae (1) an P. mirabilis (2). The series can be described thus: In vitro MIC, two-fold serial agar dilution in Mueller-Hinton agar, GnIa strains. The series is classed as cell-based. The settings on record: 5 strains, read-out: Geometric mean of MIC, GnIa. As for the experimental part: as §1
GnIa: Cephalothin(CET)sensitive E. coli (2 strains), K. pneumoniae (1) an […]

The subject of series [4] is CETresistant E. coli (3) and K. pneumoniae (2). The series can be described thus: In vitro MIC, two-fold serial agar dilution in Mueller-Hinton agar, GnIb strains. The series is classed as cell-based. Conditions: Escherichia coli, 5 strains, read-out: Geometric mean of MIC, GnIb. As for the experimental part:
as §1
GnIb: CETresistant E. coli (3) and K. pneumoniae (2)

Series [5] can be described thus: Mouse blood levels after oral administration (Table 2). It is filed as in vivo.
A further series has as its system S. aureus Smith. The series can be described thus: Evaluation in vivo (mouse), oral PD50 against S. aureus Smith. The settings on record: Staphylococcus aureus. An excerpt:
(§2) Tables 4 and 5 show the in vivo activity of pro-drug esters 88-92 including the bioavailability thereof as reflected by blood levels.

Another series concerns E. coli Juhl. The series can be described thus: Evaluation in vivo (mouse), oral PD50 against E. coli Juhl. Conditions: Escherichia coli.
Text: as §2

The nature of series [6]: Bioavailability in mouse as reflected by blood levels (Table 5). It is filed as in vivo. The settings on record: oral, Table 5 (definition given as drawing 18).
Text: as §2

A short description of series [7]: Evaluation in vivo (mouse), blood concentration (Table 4). The settings on record: po, treated orally, single 100 mg/kg dose. As to the method:
as §2
*treated orally, single 100 mg/kg. dose

The mark [8] stands for this setting: mouse blood, 20 mg/kg, read-out: AUC.
Setting [9] is: mouse blood, 20 mg/kg, read-out: T 1/2 (converted).
Where [10] appears, read: mouse blood, 100 mg/kg, read-out: AUC.
[11] abbreviates: mouse blood, 100 mg/kg, read-out: Cmax.
Setting [12] is: mouse blood, 100 mg/kg, read-out: T 1/2 (converted).

Values after ≈ are worked out from the molar mass of the structure shown. Read-outs that look alike come from different tables or passages of the source. A value given as a limit tells only on which side of the number the result lay.

With `C=CC1=C(C(=O)O)N2C(=O)[C@@H](NC(=O)/C(=N\OCC(=O)O)c3csc(N)n3)[C@H]2SC1` [Cefixime, cefixime], the MIC (as a rule, the lowest concentration that inhibits growth of the organism) amounted to 12.5 µg/mL (≈ 27.6 µM) in the series with PCresistant S. aureus; 3.2 µg/mL (≈ 7.06 µM) in series [1]; 4.7 µg/mL (≈ 10.4 µM) in series [2]; 0.016 µg/mL (≈ 0.0353 µM) in [3]; 3.1 µg/mL (≈ 6.84 µM) in series [4]. Besides, the AUC (in general, concentration integrated over time) in [5] (setting [8]) was determined as 25000 ng·h/mL; in [5] (setting [10]), 75000 ng·h/mL. Also, the Cmax (as a rule, the highest concentration seen after dosing) was 10000 ng/mL in series [5] (mouse blood, 20 mg/kg, read-out: Cmax) and 28000 ng/mL in [5] (setting [11]). Besides, the half-life in series [5] (setting [9]) was 90 min; in series [5] (setting [12]) it was 96 min.
`C/C=C\C1=C(C(=O)OC(C)OC(C)=O)N2C(=O)[C@@H](NC(=O)/C(=N\OC(C)=O)c3csc(N)n3)[C@H]2SC1` (stereo partly drawn) [Compound 55, 1-acetoxyethyl 7β-[(Z)-2-(2-aminothiazol-4-yl)-2-(acetoxyimino)acetamido]-3-[(Z)-prop-1-en-1-yl]-3-cephem-4-carboxylate]: in [5] (mouse, in vivo, 20 mg/kg), the exposure (AUC) worked out at 9400 ng·h/mL, the peak level (Cmax) was 7600 ng/mL and the half-life was 48 min. In series [5] (mouse, in vivo, 100 mg/kg), this compound had an AUC of 40000 ng·h/mL, a peak concentration (Cmax) of 27000 ng/mL and a half-life of 48 min.
As to `C/C=C\C1=C(C(=O)OC(C)OC(=O)CC2CCCCC2)N2C(=O)C(NC(=O)/C(=N\O)c3csc(N)n3)[C@H]2SC1` (some centres unmarked) [Compound 92, 1-(cyclohexylacetoxy)ethyl 7-[(Z)-2-(2-aminothiazol-4-yl)-2-(hydroxyimino)acetamido]-3-[(Z)-1-propenyl]-3-cephem-4-carboxylate], the ED50 (in general, the dose that gives a 50% effect, or the effect in half of the subjects) is 2.9 mg/kg in the series on S. aureus Smith (Table 5) and 1.4 mg/kg with E. coli Juhl (Table 5). In addition, in series [6], the bioavailability (in general, the share of a dose that reaches the circulation, judged against a reference dose that is usually intravenous) was 87%.
Turning to `C/C=C\C1=C(C(=O)OCc2oc(=O)oc2C)N2C(=O)[C@@H](NC(=O)/C(=N\O)c3csc(N)n3)[C@H]2SC1` [Compound 88, (5-methyl-2-oxo-1,3-dioxolen-4-yl)methyl 7β-[(Z)-2-(2-aminothiazol-4-yl)-2-(hydroxyimino)-acetamido]-3-[(Z)-prop-1-en-1-yl]-3-cephem-4-carboxylate], the ED50 in the series with S. aureus Smith (Table 4) worked out at 1.1 mg/kg. In [7], the area under the curve (AUC) worked out at 44000 ng·h/mL and the highest level (Cmax) was 16000 ng/mL. The same compound registered an ED50 in the series with E. coli Juhl (Table 4) of 2.7 mg/kg.
For the compound `C/C=C\C1=C(C(=O)OC(C)OC(=O)OC2CCCCC2)N2C(=O)C(NC(=O)/C(=N\O)c3csc(N)n3)[C@H]2SC1` (some centres unmarked) [Compound 90, 1-(cyclohexyloxycarbonyloxy)ethyl 7-[(Z)-2-(2-aminothiazol-4-yl)-2-(hydroxyimino)acetamido]-3-[(Z)-1-propenyl]-3-cephem-4-carboxylate], the median effective dose (ED50) in the series with S. aureus Smith (Table 5) turned out to be 3.2 mg/kg; with E. coli Juhl (Table 5), 1.5 mg/kg. Further, in series [6], the bioavailability was found to be 78%.
On to `C/C=C/C1=C(C(=O)O)N2C(=O)[C@@H](NC(=O)/C(=N\O)c3csc(N)n3)[C@H]2SC1` [Compound 33, 7β-[(Z)-2-(2-aminothiazol-4-yl)-2-(hydroxyimino)acetamido]-3-[(E)-prop-1-en-1-yl]-3-cephem-4-carboxylic acid], for which the minimal inhibitory concentration (MIC) was found to be 0.61 µg/mL (≈ 1.49 µM) in the series on PCresistant S. aureus; 22 µg/mL (≈ 53.7 µM) in [1]; 0.23 µg/mL (≈ 0.562 µM) in series [2]; 0.46 µg/mL (≈ 1.12 µM) in [3]; 1.4 µg/mL (≈ 3.42 µM) in series [4].
Take `C/C=C\C1=C(C(=O)OC(C)OC(=O)OCC)N2C(=O)[C@@H](NC(=O)/C(=N\O)c3csc(N)n3)[C@H]2SC1` (stereo partly drawn) [Compound 89, 1-(ethoxycarbonyloxy)ethyl 7β-[(Z)-2-(2-aminothiazol-4-yl)-2-(hydroxyimino)-acetamido]-3-[(Z)-prop-1-en-1-yl]-3-cephem-4-carboxylate]: it took a dose of 0.77 mg/kg to reach the 50% effect level in the series with S. aureus Smith (Table 4) (ED50). In series [7], this compound showed an AUC of 74000 ng·h/mL and a peak concentration (Cmax) of 32000 ng/mL. This compound showed an ED50 with E. coli Juhl (Table 4) of 0.67 mg/kg.
On to `N[C@@H](C(=O)N[C@@H]1C(=O)N2C(C(=O)O)=C(Cl)CS[C@H]12)c1ccccc1` [Cefaclor, reference compound], for which the MIC in the series with PCresistant S. aureus was 4.7 µg/mL (≈ 12.8 µM); in [1] it was greater than 100 µg/mL; in [2] it was 0.7 µg/mL (≈ 1.9 µM); in series [3], 0.92 µg/mL (≈ 2.5 µM); in series [4] it was 11 µg/mL (≈ 29.9 µM). For the same compound, the AUC in series [5] (mouse, in vivo, 20 mg/kg) stood at 8900 ng·h/mL; in series [5] (mouse, in vivo, 100 mg/kg), 35000 ng·h/mL. The half-life in series [5] (mouse, in vivo, 20 mg/kg) was 54.6 min; in [5] (mouse, in vivo, 100 mg/kg), 72 min.
In the case of `C/C=C\C1=C(C(=O)OC(C)OC(C)=O)N2C(=O)[C@@H](NC(=O)/C(=N\O)c3csc(N)n3)[C@H]2SC1` (stereo partly drawn) [Compound 30, 1-acetoxyethyl 7β-[(Z)-2-(2-aminothiazol-4-yl)-2-(hydroxyimino)acetamido]-3-[(Z)-prop-1-en-1-yl]-3-cephem-4-carboxylate], it took a dose of 2 mg/kg to reach the 50% effect level in the series on S. aureus Smith (Table 5) (ED50). Further, in series [5] (mouse, in vivo, 20 mg/kg), the AUC came out at 16000 ng·h/mL, the highest concentration (Cmax) stood at 9900 ng/mL and the half-life is 60 min. For the same compound, in [5] (mouse, in vivo, 100 mg/kg), the AUC turned out to be 61000 ng·h/mL, the maximum concentration (Cmax) came out at 36000 ng/mL and the half-life is 78 min. The compound further came in with a median effective dose (ED50) in the series with E. coli Juhl (Table 5) of 1.1 mg/kg. The bioavailability in series [6] was 76%.
Regarding `CC1=C(C(=O)O)N2C(=O)[C@@H](NC(=O)[C@H](N)c3ccc(O)cc3)[C@H]2SC1` [Cefadroxil, reference compound], the minimal inhibitory concentration (MIC) was 3.6 µg/mL (≈ 9.91 µM) in the series with PCresistant S. aureus; greater than 100 µg/mL in series [1]; 1.4 µg/mL (≈ 3.85 µM) in series [2]; 8.3 µg/mL (≈ 22.8 µM) in [3]; 17 µg/mL (≈ 46.8 µM) in series [4]. The exposure (AUC) in series [5] (setting [8]) stood at 16000 ng·h/mL; in series [5] (setting [10]), 69000 ng·h/mL. Further, the half-life is 84 min in series [5] (setting [9]) and 96 min in series [5] (setting [12]). The Cmax in series [5] (setting [11]) amounted to 57000 ng/mL.
In the case of `C/C=C\C1=C(C(=O)O)N2C(=O)[C@@H](NC(=O)/C(=N\OC(C)=O)c3csc(N)n3)[C@H]2SC1` [Compound 53, 7β-[(Z)-2-(2-aminothiazol-4-yl)-2-(acetoxyimino)acetamido]-3-[(Z)-prop-1-en-1-yl]-3-cephem-4-carboxylic acid], the minimum inhibitory concentration (MIC) came to 0.4 µg/mL (≈ 0.886 µM) in the series on PCresistant S. aureus; 3.6 µg/mL (≈ 7.97 µM) in series [1]; 0.17 µg/mL (≈ 0.377 µM) in [2]; 0.057 µg/mL (≈ 0.126 µM) in series [3]; 0.26 µg/mL (≈ 0.576 µM) in series [4].
Taken in the same sequence, the figures for `CC(=O)OC/C=C\C1=C(C(=O)O)N2C(=O)[C@@H](NC(=O)/C(=N\O)c3csc(N)n3)[C@H]2SC1` [Compound 37, 7β-[(Z)-2-(2-aminothiazol-4-yl)-2-(hydroxyimino)acetamido]-3-[(Z)-3-acetoxyprop-1-en-1-yl]-3-cephem-4-carboxylic acid] were 0.4 µg/mL (≈ 0.856 µM), 1.1 µg/mL (≈ 2.35 µM), 0.17 µg/mL (≈ 0.364 µM), 0.025 µg/mL (≈ 0.0535 µM) and 0.1 µg/mL (≈ 0.214 µM).
In the case of `C/C=C\C1=C(C(=O)OC(C)OC(=O)C(C)(C)C)N2C(=O)C(NC(=O)/C(=N\O)c3csc(N)n3)[C@H]2SC1` (some centres unmarked) [Compound 91, 1-(pivaloyloxy)ethyl 7-[(Z)-2-(2-aminothiazol-4-yl)-2-(hydroxyimino)acetamido]-3-[(Z)-1-propenyl]-3-cephem-4-carboxylate], the results for the 50% effective dose (ED50) in the series with S. aureus Smith (Table 5) and with E. coli Juhl (Table 5) were 2 mg/kg and 3.5 mg/kg, respectively. For the same compound, the bioavailability in series [6] stood at 60%.

Values taken from patent US4874856A, “3-(substituted)propenyl-7-(aminothiazolylacetamido) ceph-3-em-4-carboxylic acids and esters thereof” (Bristol-Myers Company, priority 1987, dated 1989).
